pIC50: −log10 of the molar value.
Target: T1, human DGAT2 (hDGAT2) (Homo sapiens, UniProt Q96PD7)
T1 construct: made in house; host or cells: Sf-9 insect cells (baculovirus infection); membrane fraction
T1 sequence (Q96PD7 1-388): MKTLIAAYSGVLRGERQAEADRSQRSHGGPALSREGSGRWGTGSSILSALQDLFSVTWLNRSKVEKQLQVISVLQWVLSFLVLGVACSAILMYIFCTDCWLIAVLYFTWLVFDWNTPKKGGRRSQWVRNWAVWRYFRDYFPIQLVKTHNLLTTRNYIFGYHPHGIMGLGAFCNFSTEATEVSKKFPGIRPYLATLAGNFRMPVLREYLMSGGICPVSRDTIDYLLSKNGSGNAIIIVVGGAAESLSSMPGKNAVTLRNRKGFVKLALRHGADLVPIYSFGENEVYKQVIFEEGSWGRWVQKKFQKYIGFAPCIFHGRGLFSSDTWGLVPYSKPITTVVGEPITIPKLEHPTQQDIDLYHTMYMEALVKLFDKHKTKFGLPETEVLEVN
Experiment: DGAT2 enzymatic activity assay (LC/MS/MS detection of 13C18-triolein, Sf-9 membrane prep)
Format: biochemical
Conditions: hDGAT2 Sf-9 membrane, 25 μM diolein, 5 μM 13C oleoyl-CoA, rt
Description: Sf-9 insect cells were maintained in Grace's insect cell culture medium with 10% heated-inactivated fetal bovine serum, 1% Pluronic F-68 and 0.14 μg/ml Kanamycine sulfate at 27° C. in a shaker incubator. After infection with untagged baculovirus expressing human DGAT2 (hDGAT2) at multiplicity of infection (MOI) 3 for 48 hours, cells were harvested. Cell pellets were suspended in buffer containing 10 mM Tris-HCl pH 7.5, 1 mM EDTA, 250 mM sucrose and Complete Protease Inhibitor Cocktail (Sigma Aldrich), and sonicated on ice. Cell debris were removed by centrifugation at 2000×g for 15 minutes. Membrane fractions were isolated by ultracentrifugation (100,000×g), resuspended in the same buffer, and frozen (−80° C.) for later use. The protein concentration was determined with the Pierce™ BCA Protein Assay Kit (Thermo Fisher Scientific). Expression of protein levels was analyzed by immunoblotting with rabbit anti-DGAT2 antibody (Abcam, ab102831) and donkey anti-rabbit IgG H&L Alexa Fluor® 647 (Abcam, ab150075) followed by detection using Typhoon FLA9000 (GE Healthcare).
LC/MS/MS analyses were performed using Thermal Fisher's LX4-TSQ Vantage system. This system consists of an Agilent binary high-performance liquid chromatography (HPLC) pumps and a TSQ Vantage triple quadrupole MS/MS instrument. For each sample, 2 μL samples from the top organic layer of in-plate liquid-liquid extraction were injected onto a Thermo Betabasic C4 column (2.1 mm×20 mm, 5 μm particle size). The samples were then eluted using the following conditions; mobile phase: Isopropanol: acetonitrile/10 mM ammonium formate=50/35/15 (v/v/v), flow rate: 0.8 mL/min, temperature: 25° C. Data was acquired in positive mode using a heated electrospray ionization (HESI) interface. The operational parameters for the TSQ Vantage MS/MS instrument were a spray voltage of 3000 V, capillary temperature of 280° C., vaporizer temperature 400° C., sheath gas 45 arbitrary unit, Aux gas 10 arbitrary units, S-lens 165 and collision gas 1.0 mTorr. […] (SRM) chromatograms of ^13C18-triolein (Q1: 920.8>Q3:621.3) and internal standard ^13C21-triolein (Q1: 923.8>Q3:617.3) were collected for 33 sec. The peak area was integrated by Xcalibur Quan software. The ratio between the ^13C18triolein generated in the reaction and spiked in internal standard ^13C21-triolein was used to generate percentage inhibition and IC50 values. Compound percentage inhibition was calculated by the following formula: Inhibition %=1−[(compound response−low control)/(high control−low control)]×100%. Potent compounds were titrated and IC50 were calculated by 4 parameter sigmoidal curve fitting formula.
DGAT2 activity was determined by measuring the amount of enzymatic product ^13C18-triolein (^13C-1,2,3-Tri(cis-9-octadecenoyl)glycerol) using the membrane prep mentioned above. The assay was carried out in ABgene 384-well assay plates in a final volume of 25 μL at rt. The assay mixture contained the following: assay buffer (100 mM Tris.Cl, pH 7.0, 20 mM MgCl2, 5% ethanol), 25 μM of diolein, 5 μM of ^13C oleoyl-CoA and 8 ng/μL of DGAT2 membrane.

Compound | pIC50
CC(C)(CN1CCOCC1)NC(=O)c1ccc2c(c1)c(-c1ccccc1Cl)cn2-c1ccc(F)cc1 [Example 9, 3-(2-chlorophenyl)-1-(4-fluorophenyl)-N-(2-methyl-l-morpholinopropan-2-yl)-1H-indole-5-carboxamide] | 4.91
CC1(NC(=O)c2cnc3c(c2)c(C2CCOCC2)nn3-c2cccc(OC(F)F)c2)CS(=O)(=O)C1 [Example 21] | 8.15
CC1(NC(=O)c2ccc3c(c2)c(NS(C)(=O)=O)nn3-c2cccc(OC(F)F)c2)CS(=O)(=O)C1 [Example 51] | < 5.00
C[C@]1(NC(=O)c2ccc3c(c2)c(Oc2ccc(F)cc2)nn3-c2cccc(OC(F)F)c2)CCS(=O)(=O)C1 [Example 54, (S)-1-(3-(difluoromethoxy)phenyl)-3-(4-fluorophenoxy)-N-(3-methyl-1,1-dioxidotetrahydrothiophen-3-yl)-1H-indazole-5-carboxamide] | 9.52
CC(C)c1nn(-c2cccc(OC(F)F)c2)c2ncc(C(=O)NC3(C)CS(=O)(=O)C3)cc12 [Example 12] | 8.03
CC(O)c1nn(-c2cccc(OC(F)F)c2)c2ncc(C(=O)NC3(C)CS(=O)(=O)C3)cc12 (single isomer, unassigned) [Example 38b, l-(3-(difluoromethoxy)phenyl)-3-(l-hydroxyethyl)-N-(3-methyl-1,1-dioxidothietan-3-yl)-1H-pyrazolo[3,4-b]pyridine-5-carboxamide] | 7.27
CC(C)Nc1nn(-c2cccc(OC(F)F)c2)c2ccc(C(=O)NC3(C)CS(=O)(=O)C3)cc12 [Example 50] | 7.39
CC1(NC(=O)c2cnc3c(c2)c(C(C)(C)O)nn3-c2cc(OCC(F)F)ncc2F)CCS(=O)(=O)CC1 [Example 44, 1-(2-(2,2-difluoroethoxy)-5-fluoropyridin-4-yl)-3-(2-hydroxypropan-2-yl)-N-(4-methyl-1,1-dioxidotetrahydro-2H-thiopyran-4-yl)-1H-pyrazolo[3,4-b]pyridine-5-carboxamide] | 8.57
CC1(NC(=O)c2cnc3c(c2)c(C2(O)CCC2)nn3-c2cccc(OC(F)F)c2)CS(=O)(=O)C1 [Example 39, l-(3-(difluoromethoxy)phenyl)-3-(l-hydroxycyclobutyl)-N-(3-methyl-1,1-dioxidothietan-3-yl)-lH-pyrazolo[3,4-b]pyridine-5-carboxamide] | 7.82
CC1(NC(=O)c2ccc3c(c2)c(C(F)F)nn3-c2cccc(OC(F)F)c2)CS(=O)(=O)C1 [Example 32, 1-(3-(difluoromethoxy)phenyl)-3-(difluoromethyl)-N-(3-methyl-1,1-dioxidothietan-3-yl)-1H-indazole-5-carboxamide] | 7.62
CCC(O)c1nn(-c2cccc(OC(F)F)c2)c2ccc(C(=O)NC3(C)CS(=O)(=O)C3)cc12 (single isomer, unassigned) [Example 28b, 1-(3-(difluoromethoxy)phenyl)-3-(1-hydroxypropyl)-N-(3-methyl-1,1-dioxidothietan-3-yl)-1H-indazole-5-carboxamide] | 7.15
C[C@]1(NC(=O)c2ccc3c(c2)c(-c2ccc(F)cc2)cn3-c2ccccc2Cl)CCS(=O)(=O)C1 [Example 5, (S)-1-(2-chlorophenyl)-3-(4-fluorophenyl)-N-(3-methyl-1,1-dioxidotetrahydrothiophen-3-yl)-1H-indole-5-carboxamide] | 6.94
CCC(O)c1nn(-c2cccc(OC(F)F)c2)c2ccc(C(=O)NC3(C)CS(=O)(=O)C3)cc12 (racemic) [Example 28, 1-(3-(difluoromethoxy)phenyl)-3-(1-hydroxypropyl)-N-(3-methyl-1,1-dioxidothietan-3-yl)-1H-indazole-5-carboxamide] | 7.11
CC1(NC(=O)c2ccc3c(c2)c(C(O)C(F)F)nn3-c2cccc(OC(F)F)c2)CS(=O)(=O)C1 (racemic) [Example 31] | 7.03

— patent US20230174521A1, “NOVEL DIACYLGLYCERIDE O-ACYLTRANSFERASE 2 INHIBITORS” (Merck Sharp & Dohme LLC, priority 2020, published 2023)
